We go through 1 compound from patent US20100285141A1, “COMPOSITIONS AND METHODS FOR ENHANCING THE ACTIVITY OF PODOPHYLLOTOXIN” (DO-COOP TECHNOLOGIES LTD., priority 2008, published 2010).

In experiment [1] the test system is PC3 prostate cancer cells. The experiment can be described thus: Etoposide in Neowater or deionized water, surviving cells by XTT dye uptake, PC3. Particulars: PC3, 24 hours incubation, FIG. 1B. Format: cell-based, human. An excerpt: (§1) Two human prostate cancer cell lines were examined—LnCap and PC3.
The subject of experiment [2] is LnCap prostate cancer cells. The experiment can be described thus: Etoposide in Neowater or deionized water, surviving cells by XTT dye uptake, LnCap. Format: cell-based, human. The conditions noted are these: 24 hours incubation, FIG. 1A.
Description: as §1
(Formazan colour is commonly taken as a measure of viable cells.)

As to `COc1cc([C@@H]2c3cc4c(cc3[C@@H](O[C@@H]3O[C@@H]5CO[C@@H](C)O[C@H]5[C@H](O)[C@H]3O)[C@H]3COC(=O)[C@H]23)OCO4)cc(OC)c1O` [etoposide, Etoposide], the “proliferation of cancer cells (cell growth)” value in experiment [1] and in experiment [2] was “dose-dependent decrease” throughout.
